# According to patent US20220242846A1, “ISOINDOLINONE COMPOUNDS” (Monte Rosa Therapeutics AG, priority 2019, published 2022):
# Read-outs that look alike come from different tables or passages of the source.
# Experiments:
# Assay type in all cases: cell-based
# [1] = tested on: Human mammary epithelial cells (HMEC) engineered to express EGFP alone (non myc); test: 3D spheroid assay, non myc-HMEC (CellTiterGlo3D viability); conditions: 120 h, 3D spheroids, 5 days with compound, read-out: Code: EC50 value in the non myc-HMEC assay
# [2] = tested on: Human mammary epithelial cells (HMEC) engineered to express c-myc tagged with EGFP; test: 3D spheroid assay, myc-HMEC (CellTiterGlo3D viability)
# IKZF3 = biological target: T1, IKZF3 (Homo sapiens, UniProt Q9UKT9); test: Selectivity determination by Western Blot assay in MM1S cells: IKZF3; set-up: key: A represents a no degradation observed at 30 μM; B represents trace degradation at 30 μM (below 20%); C represents weak degradation at 30 μM (below 50%); D represents degradation at 30 μM (>90%); E represents degradation at 3 μM (>90%); F represents degradation at 0.3 μM (>90%); conditions: MM1S cells, 0.3, 3 and 30 μM, 6 hours
# T1 construct: MM1S cells were purchased from ATCC (cat. Number CRL-2974); endogenous in cells; host or cells: MM1S (ATCC CRL-2974)
# Description: (§1) CK1alpha/Ikaros/Aiolos/ZFP91 Selectivity determination by Western Blot Assay
# (§2) MM1S cells were purchased from ATCC (cat. Number CRL-2974), sub-cultured in 90% RPMI 1640 with 10% FBS, supplemented with 1× P/S and incubated at 37° C., 5% CO2. Compounds were stored as 10 mM DMSO stock. For the assay, MM1S cells (3 million cells/well) were plated in 6-well plates and incubated over night. Cells were treated with respective compounds using a serial dilution: 0.3 μM, 3 μM and 30 μM as well as a vehicle only (DMSO) control for 6 hours. Media with suspension cells was subsequently transferred to 15 mL conical tubes, wells rinsed twice with ice-cold PBS and merged with cell suspension in respective 15 mL conical tube. Cells were spinned down, supernatant aspirated, pellets resuspended in ice-cold PBS and transferred to microtubes. Cells were spinned down, supernatant aspirated and pellets resuspended in 120 μL RIPA lysis buffer supplemented with protease and phosphatase inhibitors. Cell lysates were incubated on ice for 20 minutes followed by centrifugation at >20,000×g for 5 mM. Supernatants were transferred to fresh microtubes and stored at −80° C. Total protein concentration was determined using a BCA assay with a BSA standard curve and concentration of all samples was adjusted to 1 mg/mL. 25 μL 4× LDS sample buffer supplemented with 100 mM DTT was added to 75 μL sample. Samples were centrifuged (8,000×g, 1 min) and incubated at 95° C. for […] followed by another centrifugation step (8,000×g, 1 mM). 20 μL of each sample was loaded on a 4-12% gel alongside a protein molecular weight marker. Gels were run in the presence of MOPS buffer at 80 Volts for […], followed by 120 Volts for 1.5 h and proteins subsequently transferred onto nitrocellulose membranes at 20 Volts for 7 mM using an iBlot2 Gel Transfer Device. Membranes were then cut horizontally into two pieces, covering 80-50 kDa and 50-25 kDa. Blocking the membranes was performed by gently shaking in 5% (w/v) skim milk in TSB-T for 1 hr at room temperature. All primary antibodies were used at a 1/1000 in 5% (w/v) BSA dissolved in TBST and incubated with membranes over night at 4° C. After three washes with 1× TBST for 5 mM, HRP-coupled secondary antibodies diluted in 5% (w/v) BSA/TBST (Goat Anti-Rb IgG, dil. 1/10,000; Goat Anti-Mouse IgG, dil. 1/5000) were added for 1 hr at room temperature. After three washes with 1× TBST (5 minutes each), membranes were incubated with ECL reagent for 1 mM at room temperature. Chemiluminescence signals were then detected using a LAS-4000 system with default settings and signals quantified using Image Studio Lite software (version 5.2). Membrane parts previously incubated with antibody against CK1alpha were stripped off antibodies by incubating with stripping buffer for 30 minutes followed by three washed with TBST (5 mM each), blocking with 5% (w/v) skim milk for 1 hr, and incubation with primary antibody against GAPDH overnight at 4° C. Subsequent washes, incubation with secondary antibody and signal acquisition were performed as described above.
# (§3) Table 5 assigns each compound a code indicating the ability for the degradation of IKZF1, IKZF3, CK1alpha and ZFP91: A, B, C, D, E or F. According to the code, A represents a no degradation observed at 30 μM, B represents trace degradation at 30 μM (below 20%), C represents weak degradation at 30 μM (below 50%), D represents degradation at 30 μM (>90%), E represents degradation at 3 μM (>90%) and F represents degradation at 0.3 μM (>90%).
# CK1alpha = biological target: T2, CK1alpha (Homo sapiens, UniProt P48729); test: Selectivity determination by Western Blot assay in MM1S cells: CK1alpha; set-up: key: A represents a no degradation observed at 30 μM; B represents trace degradation at 30 μM (below 20%); C represents weak degradation at 30 μM (below 50%); D represents degradation at 30 μM (>90%); E represents degradation at 3 μM (>90%); F represents degradation at 0.3 μM (>90%); conditions: MM1S cells, 0.3, 3 and 30 μM, 6 hours
# T2 construct: MM1S cells were purchased from ATCC (cat. Number CRL-2974); endogenous in cells; host or cells: MM1S (ATCC CRL-2974)
# Description: as §1, §2, §3
# T2 sequence (Q96SW2 whole entry partner): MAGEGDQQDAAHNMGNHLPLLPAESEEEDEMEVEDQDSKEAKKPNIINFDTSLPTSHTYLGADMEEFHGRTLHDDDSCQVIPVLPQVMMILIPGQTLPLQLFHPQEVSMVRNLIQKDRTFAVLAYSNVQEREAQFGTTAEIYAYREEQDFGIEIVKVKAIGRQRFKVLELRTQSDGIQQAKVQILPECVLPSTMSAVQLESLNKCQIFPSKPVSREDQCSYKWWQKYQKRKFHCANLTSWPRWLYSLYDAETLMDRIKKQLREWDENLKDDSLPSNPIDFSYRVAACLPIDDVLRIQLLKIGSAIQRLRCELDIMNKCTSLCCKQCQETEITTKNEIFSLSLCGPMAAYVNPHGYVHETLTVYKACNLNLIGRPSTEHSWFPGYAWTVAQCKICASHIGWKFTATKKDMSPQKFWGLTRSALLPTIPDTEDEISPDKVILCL
# T2 sequence (Q16531 2-1140 partner limits assumed): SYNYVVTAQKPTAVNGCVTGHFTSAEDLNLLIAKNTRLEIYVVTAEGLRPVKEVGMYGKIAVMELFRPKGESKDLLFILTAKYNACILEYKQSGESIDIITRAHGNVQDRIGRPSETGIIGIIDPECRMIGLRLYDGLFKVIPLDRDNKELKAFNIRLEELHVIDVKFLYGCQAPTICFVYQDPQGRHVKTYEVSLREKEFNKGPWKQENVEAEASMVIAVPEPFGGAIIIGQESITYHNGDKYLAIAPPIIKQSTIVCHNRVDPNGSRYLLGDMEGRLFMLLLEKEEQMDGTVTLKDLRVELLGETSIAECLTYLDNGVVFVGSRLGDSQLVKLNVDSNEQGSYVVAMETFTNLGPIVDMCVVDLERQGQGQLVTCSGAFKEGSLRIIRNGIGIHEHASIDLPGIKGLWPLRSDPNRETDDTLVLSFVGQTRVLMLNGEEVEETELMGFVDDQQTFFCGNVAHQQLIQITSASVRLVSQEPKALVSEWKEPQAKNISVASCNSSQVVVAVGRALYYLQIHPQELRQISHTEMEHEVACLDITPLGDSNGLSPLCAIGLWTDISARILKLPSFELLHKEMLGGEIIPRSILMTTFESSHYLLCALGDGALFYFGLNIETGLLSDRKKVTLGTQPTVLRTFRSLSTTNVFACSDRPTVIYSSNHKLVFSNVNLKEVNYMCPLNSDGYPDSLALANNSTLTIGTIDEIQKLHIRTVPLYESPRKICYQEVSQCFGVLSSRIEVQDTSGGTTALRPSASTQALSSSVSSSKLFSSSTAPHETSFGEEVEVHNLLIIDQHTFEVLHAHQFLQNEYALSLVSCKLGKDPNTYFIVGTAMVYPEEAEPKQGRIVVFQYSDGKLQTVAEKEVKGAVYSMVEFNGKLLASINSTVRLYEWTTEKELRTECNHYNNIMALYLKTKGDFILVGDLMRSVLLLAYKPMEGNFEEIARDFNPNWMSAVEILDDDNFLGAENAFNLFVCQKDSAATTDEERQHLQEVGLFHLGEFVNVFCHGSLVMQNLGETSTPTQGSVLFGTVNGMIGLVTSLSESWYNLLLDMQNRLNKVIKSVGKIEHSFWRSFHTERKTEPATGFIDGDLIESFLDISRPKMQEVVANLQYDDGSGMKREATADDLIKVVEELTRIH
# T2 sequence (P48729 whole entry): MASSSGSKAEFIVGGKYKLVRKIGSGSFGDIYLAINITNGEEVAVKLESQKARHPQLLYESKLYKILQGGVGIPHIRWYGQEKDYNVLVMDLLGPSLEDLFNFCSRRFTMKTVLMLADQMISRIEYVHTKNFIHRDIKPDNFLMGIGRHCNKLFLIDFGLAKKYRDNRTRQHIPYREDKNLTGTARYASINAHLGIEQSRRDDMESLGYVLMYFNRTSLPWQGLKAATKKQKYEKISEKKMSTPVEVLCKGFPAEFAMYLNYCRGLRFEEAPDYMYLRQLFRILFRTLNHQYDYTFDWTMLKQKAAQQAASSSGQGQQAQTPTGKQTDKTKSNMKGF
# T1 sequence (Q96SW2 whole entry partner): as the sequence (Q96SW2 whole entry partner) above
# T1 sequence (Q16531 2-1140 partner limits assumed): as the sequence (Q16531 2-1140 partner limits assumed) above
# T1 sequence (Q9UKT9 whole entry): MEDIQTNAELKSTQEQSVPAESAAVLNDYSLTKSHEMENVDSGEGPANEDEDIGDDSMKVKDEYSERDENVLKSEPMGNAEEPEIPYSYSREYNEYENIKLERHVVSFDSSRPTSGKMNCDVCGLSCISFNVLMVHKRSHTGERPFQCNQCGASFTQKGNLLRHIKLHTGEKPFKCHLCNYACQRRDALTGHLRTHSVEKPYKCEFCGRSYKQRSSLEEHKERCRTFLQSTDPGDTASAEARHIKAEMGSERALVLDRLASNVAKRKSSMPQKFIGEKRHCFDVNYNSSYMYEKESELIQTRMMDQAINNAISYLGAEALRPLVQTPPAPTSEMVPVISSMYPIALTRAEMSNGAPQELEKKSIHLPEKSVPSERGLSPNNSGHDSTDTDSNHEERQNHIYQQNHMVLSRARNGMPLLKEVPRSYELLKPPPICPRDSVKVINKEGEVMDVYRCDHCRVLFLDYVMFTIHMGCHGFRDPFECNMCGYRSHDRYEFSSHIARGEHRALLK
SMILES,EC50 [1] [nM],"EC50 ([2]; Homo sapiens, HMEC, 120 h, 3D spheroids, 5 days with compound, read-out: Code: EC50 value in the myc-HMEC assay) [nM]","EC50 ([2]; myc-HMEC 3D spheroids (compounds with code D and E), 5 days, read-out: EC50) [nM]",IKZF3 degradation code (IKZF3),CK1alpha degradation code (CK1alpha)
Cc1ccc(NC(=O)NCc2ccc3c(c2)C(=O)N(C2CCC(=O)NC2=O)C3)cc1Cl (stereo not drawn) [Compound 8],> 10000,≤ 400,220,B (B represents trace degradation at 30 μM (below 20%)),A
Cc1c(Cl)cc(NC(=O)NCc2ccc3c(c2)C(=O)N(C2CCC(=O)NC2=O)C3)cc1CN(C)C (stereo not drawn) [Compound 75],> 10000,,,A,A
Cc1c(Cl)cc(NC(=O)NCc2ccc3c(c2)C(=O)N(C2CCC(=O)NC2=O)C3)cc1CN1CCOCC1 (stereo not drawn) [Compound 82],,,,A,A
Cc1cc(C)c(NC(=O)NCc2ccc3c(c2)C(=O)N(C2CCC(=O)NC2=O)C3)cc1Cl (stereo not drawn) [Compound 85],,,,A,B (B represents trace degradation at 30 μM (below 20%))
Cc1ccc(NC(=O)NCc2ccc3c(c2)C(=O)N(C2CCC(=O)NC2=O)C3)c(Cl)c1Cl (stereo not drawn) [Compound 87],,,,A,A
O=C1CCC(N2Cc3ccc(CNC(=O)Nc4cccc(CN5CCOCC5)c4)cc3C2=O)C(=O)N1 (stereo not drawn) [Compound 105],,,,A,A
Cc1c(Cl)cc(NC(=O)NCc2ccc3c(c2)C(=O)N(C2CCC(=O)NC2=O)C3)cc1CC1COCOC1 (stereo not drawn) [Compound 132],,,,A,C (C represents weak degradation at 30 μM (below 50%))
